From patent US10792377B2, “Compounds and method for imaging cancer” (Vanderbilt University, priority 2017, dated 2020) come the findings set out here.

Data set [1] can be described thus: Fluorometry: extinction, quantum yield, fluorescence in DMSO/EtOH. Type of data set: physicochemical. As for the experimental part:
The TEMPO- and PROXYL-fluorocoxib probes are non-fluorescent (Φfl<0.3) in their non-trapped form, whereas fluorocoxib A or B are highly fluorescent (Φfl[…]) (FIG. 13). However, the absorbance and fluorescence of the TEMPO- and PROXYL-fluorocoxib probes increases in a time-dependent fashion when incubated in a DMSO/EtOH solution (FIGS. 14-15). Referring to FIG. 15, it is noted that at about 16 hours, fluorescence (ex 586 nm) read about 120,000 cps at 607 nm. Turning to FIG. 16, as compared to 5-ROX acid, which had extinction of 36/mM/cm at 580 nm and quantum yield of 0.94 at 604 nm, and fluorocoxib A, which had extinction of 45/mM/cm at 579 nm and quantum yield of 0.93 at 602 nm, fluorocoxib Q1 had extinction of less than 0.4/mM/cm at 586 nm and quantum yield of less than 0.36 at 607 nm. Without wishing to be bound by theory, it is believed that the time-dependent increase in fluorescence and measured fluorescence at 607 nm is the result of reduction/oxidation of fluorocoxib Q1 in the DMSO/EtOH solution (FIG. 16).
Fluorometry. Steady state fluorescence excitation and emission spectra were determined for each compound with a Spex 1681 Fluorolog spectrofluorometer, equipped with a 450 W xenon arc lamp. […]

The next data set has as its target T1, ovine COX-1 (Ovis aries, UniProt P05979).
T1 sequence (P05979 25-600): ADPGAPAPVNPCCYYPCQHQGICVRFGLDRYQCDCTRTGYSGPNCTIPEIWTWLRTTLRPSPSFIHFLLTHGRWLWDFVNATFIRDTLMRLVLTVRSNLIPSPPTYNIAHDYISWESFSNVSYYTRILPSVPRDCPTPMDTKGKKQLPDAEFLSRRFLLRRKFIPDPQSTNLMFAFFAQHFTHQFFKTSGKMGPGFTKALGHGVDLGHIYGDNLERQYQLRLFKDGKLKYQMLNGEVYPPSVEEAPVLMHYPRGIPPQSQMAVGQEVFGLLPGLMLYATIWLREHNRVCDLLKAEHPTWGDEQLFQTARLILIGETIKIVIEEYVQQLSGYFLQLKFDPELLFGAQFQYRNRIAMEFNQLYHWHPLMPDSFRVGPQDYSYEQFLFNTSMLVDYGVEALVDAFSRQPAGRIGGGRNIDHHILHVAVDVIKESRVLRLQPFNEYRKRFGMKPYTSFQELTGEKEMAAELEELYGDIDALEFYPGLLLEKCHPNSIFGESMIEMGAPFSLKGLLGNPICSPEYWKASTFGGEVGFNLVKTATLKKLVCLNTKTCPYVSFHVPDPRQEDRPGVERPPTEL
Put plainly: In vitro purified COX-1 inhibition assay (TLC, 14C-arachidonic acid). Type of data set: biochemical. As for the experimental part:
(§1) The in vitro cyclooxygenase (ovine COX-1 or human COX-2) inhibitory activities of these probes were tested by a previously described TLC assay (FIGS. 19-21). Briefly, reaction mixtures of 200 μL consisted of hematin-reconstituted protein in 100 mM Tris-HCl, pH 8.0, 500 μM phenol, and [1-^14C]arachidonic acid (50 μM, about 55-57 mCi/mmol, Perkin Elmer).
Inhibition Assay Using Purified COX-1 and COX-2. Inhibition of purified ovine COX-1 or mouse COX-2 by test compounds was assayed by a previously described method, which quantifies the conversion of [1-^14C]arachidonic acid to [1-^14C]prostaglandin products. Reaction mixtures of 200 ∝L consisted of hematin-reconstituted protein in 100 mM Tris-HCl, pH 8.0, 500 μM phenol, and [1-^14C]arachidonic acid (50 μM, ˜55-57 mCi/mmol, Perkin Elmer). […] Reactions were terminated by solvent extraction in diethyl ether:methanol:1 M citrate buffer, pH 4.0 (30:4:1). The phases were separated by centrifugation at 2000 g for 2 min, and the organic phase was spotted on a thin-layer chromatography plate (EMD Kieselgel 60, VWR). The plate was developed in ethyl acetate:methylene chloride:glacial AcOH (75:25:1) at 4° C. Radiolabeled products were quantified with a radioactivity scanner (Bioscan, Inc., Washington, D.C.).

For a further data set, the target named is T2, murine COX-2 (Mus musculus, UniProt Q05769).
T2 sequence (Q05769 18-604): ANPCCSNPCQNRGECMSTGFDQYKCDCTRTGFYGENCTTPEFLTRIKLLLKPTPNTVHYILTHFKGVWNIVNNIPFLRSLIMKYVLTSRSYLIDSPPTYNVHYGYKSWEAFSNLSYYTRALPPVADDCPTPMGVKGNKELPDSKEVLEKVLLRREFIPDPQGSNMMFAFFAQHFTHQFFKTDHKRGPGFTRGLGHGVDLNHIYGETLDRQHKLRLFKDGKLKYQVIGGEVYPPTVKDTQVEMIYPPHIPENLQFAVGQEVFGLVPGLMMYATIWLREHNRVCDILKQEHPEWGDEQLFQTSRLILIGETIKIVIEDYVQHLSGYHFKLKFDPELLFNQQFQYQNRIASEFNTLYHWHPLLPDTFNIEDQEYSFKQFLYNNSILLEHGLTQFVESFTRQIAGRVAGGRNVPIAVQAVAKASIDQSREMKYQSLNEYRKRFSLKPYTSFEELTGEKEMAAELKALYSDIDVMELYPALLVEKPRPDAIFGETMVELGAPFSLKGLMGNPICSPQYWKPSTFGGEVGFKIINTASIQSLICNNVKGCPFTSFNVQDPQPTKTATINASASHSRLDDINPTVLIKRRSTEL
Put plainly: In vitro purified COX-2 inhibition assay (TLC, 14C-arachidonic acid). Type of data set: biochemical. The conditions noted are these: for COX-2 Selectivity Index (COX-1 IC50/COX-2 IC50): in vitro, purified enzymes. As for the experimental part:
as §1
Inhibition Assay Using Purified COX-1 and COX-2. Inhibition of purified ovine COX-1 or mouse COX-2 by test compounds was assayed by a previously described method, which quantifies the conversion of [1-^14C]arachidonic acid to [1-^14C]prostaglandin products. Reaction mixtures of 200 ∝L consisted of hematin-reconstituted protein in 100 mM Tris-HCl, pH 8.0, 500 μM phenol, and [1-^14C]arachidonic acid (50 μM, ˜55-57 mCi/mmol, Perkin Elmer). For the time-dependent inhibition assay, hematin-reconstituted COX-1 ([…]) was preincubated at 25° C. for 17 min and 37° C. for 3 min with varying inhibitor concentrations in dimethylsulfoxide followed by the addition of [1-^14C]arachidonic acid (50 μM) for 30 s at 37° C. Reactions were terminated by solvent extraction in diethyl ether:methanol:1 M citrate buffer, pH 4.0 (30:4:1). The phases were separated by centrifugation at 2000 g for 2 min, and the organic phase was spotted on a thin-layer chromatography plate (EMD Kieselgel 60, VWR). The plate was developed in ethyl acetate:methylene chloride:glacial AcOH (75:25:1) at 4° C. Radiolabeled products were quantified with a radioactivity scanner (Bioscan, Inc., Washington, D.C.).

Data set [2] has as its system 4T1 orthotopic breast cancer xenografts. Put plainly: In vivo image-guidance of chemocoxib A delivery, orthotopic 4T1 breast cancer xenografts. The conditions noted are these: tumor homogenate, LC-MS, 49 h after CA-FQ-NPs (1 mg/kg CA, 1 mg/kg FQ, s.c.).
Method: To generate orthotopic breast cancer xenografts, the 4T1 tumor cells (1×10^6 in 200 μL sterile PBS) were injected into the inguinal mammary fat-pads of athymic Balb/C nu/nu female mice (4-6 weeks old, Jax Mice). Tumors were full-grown by 4-5 weeks (tumor volume=length×width^2×0.52).
The animals were dosed with CA-FQ-NPs in PBS (1 mg/kg CA, 1 mg/kg FQ, s.c.) and imaged on a Xenogen IVIS200 optical imaging instrument at 0.5 h, 1 h, 3 h, 6 h, 28 h, and 49 h post-injection. […] After in vivo imaging, the 49 h animals group was euthanized, and brain, muscle, tumor, liver, lung, and kidney tissues were collected (FIG. 32D).
The target of the next data set is T3, hCOX-2 in 1483 cells (Homo sapiens, UniProt P35354).
T3 construct: cells that express high levels of COX-2 were selected; endogenous in cells; host or cells: 1483 human head and neck squamous cell carcinoma (HNSCC) cells
T3 sequence (P35354 18-604): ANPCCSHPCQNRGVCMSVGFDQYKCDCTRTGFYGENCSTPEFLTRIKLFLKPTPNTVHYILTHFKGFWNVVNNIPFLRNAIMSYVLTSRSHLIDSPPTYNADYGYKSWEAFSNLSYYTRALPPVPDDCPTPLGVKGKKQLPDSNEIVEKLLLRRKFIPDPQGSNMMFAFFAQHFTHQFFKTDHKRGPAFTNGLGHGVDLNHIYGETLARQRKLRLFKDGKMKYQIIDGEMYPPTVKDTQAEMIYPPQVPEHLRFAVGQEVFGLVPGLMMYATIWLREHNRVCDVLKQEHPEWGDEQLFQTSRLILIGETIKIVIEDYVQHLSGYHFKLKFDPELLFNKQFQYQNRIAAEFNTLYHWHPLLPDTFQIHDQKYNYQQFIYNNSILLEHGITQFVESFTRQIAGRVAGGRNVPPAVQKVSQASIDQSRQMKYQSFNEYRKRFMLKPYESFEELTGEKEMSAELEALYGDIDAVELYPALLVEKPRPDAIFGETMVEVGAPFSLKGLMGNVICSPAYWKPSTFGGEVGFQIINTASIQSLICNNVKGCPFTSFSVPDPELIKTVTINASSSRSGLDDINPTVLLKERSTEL
Put plainly: Intact cell COX-2 inhibition assay in 1483 HNSCC cells. The format is cell-based. Conditions: high throughput screening, intact cancer cells; read-out: COX-2 positive 1483 HNSCC cells IC50. On the procedure:
Following the promising results from the purified enzyme assay, the ability of compound 1 to inhibit COX-2 in intact cells was examined using a previously reported method. 1483 human head and neck squamous cell carcinoma (1483 HNSCC) cells that express high levels of COX-2 were selected. […]
Cell Culture and In Vitro Intact Cell Metabolism Assay. Inhibition of COX-2 in intact cells by test compounds was assayed by a previously described method. Human 1483 head and neck squamous cell carcinoma (HNSCC) cells (passage 8-18, mycoplasma negative by a polymerase chain reaction detection method) were cultured in DMEM/F12+10% fetal bovine serum+Antibiotic/Antimycotic in 6-well plates to 60% confluence. […] Reactions were terminated and analyzed by thin layer chromatography as described above.

Setting [3] is: COX-2 IC50, in vitro purified cox assay.
The mark [4] stands for this setting: mCOX-2 IC50, purified murine COX-2 (63 nM), inhibitor 20 min, then 1-14C-AA (50 μM) 37° C. 30 s, duplicates.

The structures appear in SMILES notation. Read-outs that look alike come from different tables or passages of the source.

Take `O=C(O)c1ccc(C(=O)[O-])c(C2=c3cc4c5c(c3Oc3c2cc2c6c3CCCN6CCC2)CCC[N+]=5CCC4)c1` [5-ROX acid]: the extinction in data set [1] (at 580 nm (5-ROX acid), 579 nm (fluorocoxib A), 586 nm (fluorocoxib Q1)) was found to be 36 mM⁻¹ cm⁻¹. The molecule further showed a quantum yield in data set [1] (at 604 nm (5-ROX acid), 602 nm (fluorocoxib A), 607 nm (fluorocoxib Q1)) of 0.94.

`COc1ccc2c(c1)c(CC(=O)NCCCCNC(=O)c1ccc(C(=O)NC3CC(C)(C)N([O])C(C)(C)C3)c(C3=c4cc5c6c(c4Oc4c3cc3c7c4CCCN7CCC3)CCC[N+]=6CCC5)c1)c(C)n2C(=O)c1ccc(Cl)cc1` [Compound 2]: the half-maximal inhibitory concentration (IC50) is more than 25000 nM against ovine COX-1, 332 nM against murine COX-2 (setting [3]) and 330 nM on murine COX-2 (setting [4]). Besides, the “COX-2 Selectivity Index (COX-1 IC50/COX-2 IC50)” value at murine COX-2 was more than 75.

With `COc1ccc2c(c1)c(CC(=O)NCCCCNC(=O)c1ccc(C3=c4cc5c6c(c4Oc4c3cc3c7c4CCCN7CCC3)CCC[N+]=6CCC5)c(C(=O)Nc3ccc(C(=O)OC4CC(C)(C)N([O])C(C)(C)C4)cc3)c1)c(C)n2C(=O)c1ccc(Cl)cc1` [Compound 3], the half-inhibitory concentration (IC50) is more than 25000 nM against ovine COX-1 and 460 nM on murine COX-2 (setting [3]). The “COX-2 Selectivity Index (COX-1 IC50/COX-2 IC50)” value at murine COX-2 was more than 54.

Consider `COc1ccc2c(c1)c(CC(=O)NCCCCNC(=O)c1ccc(C3=c4cc5c6c(c4Oc4c3cc3c7c4CCCN7CCC3)CCC[N+]=6CCC5)c(C(=O)OC3CC(C)(C)N([O])C(C)(C)C3)c1)c(C)n2C(=O)c1ccc(Cl)cc1` [Compound 4], for which the IC50 against ovine COX-1 is more than 25000 nM; on murine COX-2 (setting [4]) it was 1240 nM. Moreover, the “COX-2 Selectivity Index (COX-1 IC50/COX-2 IC50)” value on murine COX-2 is reported as more than 20.

With `COc1ccc2c(c1)c(CC(=O)NCCCCNC(=O)c1ccc(C3=c4cc5c6c(c4Oc4c3cc3c7c4CCCN7CCC3)CCC[N+]=6CCC5)c(C(=O)NCC3CC(C)(C)N([O])C3(C)C)c1)c(C)n2C(=O)c1ccc(Cl)cc1` (centres unmarked) [Compound 5], the IC50 against ovine COX-1 was more than 25000 nM; against murine COX-2 (setting [4]), 1800 nM. The “COX-2 Selectivity Index (COX-1 IC50/COX-2 IC50)” value at murine COX-2 is reported as more than 13.

With `COc1ccc2c(c1)c(CC(=O)NCCCCNC(=O)c1ccc(C(=O)[O-])c(C3=c4cc5c6c(c4Oc4c3cc3c7c4CCCN7CCC3)CCC[N+]=6CCC5)c1)c(C)n2C(=O)c1ccc(Cl)cc1` [Fluorocoxib B, reference compound], the half-inhibitory concentration (IC50) on ovine COX-1 (purified ovine COX-1 (22.5 nM), inhibitor 20 min, then 1-14C-AA (50 μM) 37° C. 30 s, duplicates, read-out: oCOX-1 IC50) is more than 25000 nM; on murine COX-2 (purified murine COX-2 (63 nM), inhibitor 20 min, then 1-14C-AA (50 μM) 37° C. 30 s, duplicates, read-out: mCOX-2 IC50) it was 800 nM. Besides, the “COX-2 Selectivity Index (COX-1 IC50/COX-2 IC50)” value at murine COX-2 is more than 31.

`COc1ccc2c(c1)c(CC(=O)NCCCCNC(=O)CCC(=O)O[C@H]1c3cc4c(cc3[C@@H](c3cc(OC)c(OC)c(OC)c3)[C@H]3C(=O)OC[C@@H]31)OCO4)c(C)n2C(=O)c1ccc(Cl)cc1` [chemocoxib A, reference compound]: the “level in tumor tissue” value in data set [2] came out at 3.1 pmol/g tissue. The IC50 at hCOX-2 in 1483 cells came to 200 nM.

The term IC50 denotes the concentration that gives 50% inhibition.
